Source: US10865316B2 (Clemson University Research Foundation, priority 2015, dated 2020)
“Also recorded” adds a separate entry of the source.

Assays:
[1] = test system: oyster hemocytes; type: cell-based
[2] = test system: 3-day old cyprid; conditions: in vivo

pGlu Gly Val Cys Cys Gly Tyr Lys Leu Cys His Hyp Cys-NH2 [SEQ ID NO: 13]
apoptosis in oyster hemocytes [1]: cause apoptosis
cyprid settlement [2]: inhibited cyprid settlement; also recorded: promoted settlement
